Patent US20260191818A1 (University of South Carolina, priority 2022, published 2026)

Columns and labels:
[1] = tested on: tibialis anterior (TA) muscle; test: Muscle histology (H&E), myofibrillar cross sectional area of tibialis anterior; assay type: in vivo, CD2F1 mice; conditions: C26+5FU+Quer vs C26+5FU
Procedure: Skeletal muscle histology was assessed via hematoxylin and eosin (H&E) staining on tibialis anterior (TA) muscle cryosections. The TA muscle was dissected, snap-frozen in liquid nitrogen with Optimum Cutting Temperature (OCT) embedding medium placed on the most distal portion of the TA and stored in −80° C. Tissue was acclimated to the cryostat temperature (−24° C.) prior to collection of transverse sections ([…]) on Fisherbrand Superfrost Plus Microscope Slides. TA tissue slides were then stored at −80° C. until staining. Slides were fixed in ice-cold acetone and H&E staining was completed as previously described. […] Cancer Biol Ther, 2022. 23(1); and VanderVeen, B. N., et al., 5-Fluorouracil disrupts skeletal muscle immune cells and impairs skeletal muscle repair and remodeling. J Appl Physiol (1985), 2022. 133(4): p. 834-849. Images of H&E stains were taken at 20× and 40× magnification using a Keyence BZX800 microscope. Muscle cross sectional area (mCSA) was measured using ImageJ by measuring the circumference of 500-700 myofibers/mouse (n=3-5/group).

[2] = tested on: soleus muscle mitochondria; test: Transmission electron microscopy of soleus muscle, mitochondrial number and size; assay type: in vivo, CD2F1 mice; conditions: C26+5FU+Quer vs C26+5FU
Procedure: Mitochondrial number and size were assessed in the soleus muscle using transmission electron microscopy (TEM). Skeletal muscle was prepared for TEM as previously described. See, VanderVeen, B. N., et al., 5-Fluorouracil disrupts skeletal muscle immune cells and impairs skeletal muscle repair and remodeling. J Appl Physiol (1985), 2022. 133(4): p. 834-849. The soleus was excised and initially fixed in 2.5% EM-grade glutaraldehyde followed by a secondary fixation in 1% osmium tetroxide and 1.5% K+ ferricyanide. After dehydration with increasing concentrations of ethanol, the samples were transferred to acetonitrile and embedded in Polybed 812. Ultrathin (~70 nm) sections were cut with a Leica Reichert Ultracut R ultramicrotome (Leica Microsystems GmbH, Wetzlar, Germany), collected on copper grids and stained with uranyl acetate and lead citrate. A JEOL 1400+ transmission electron microscope (JEOL USA, Peabody, MA) was used to view sections, and digital images were obtained with an Advanced Microscopy Techniques XR 81 Camera (Advanced Microscopy Techniques, Woburn, MA). Tissues were searched for intact and aligned sarcomeres by an investigator blinded to the experimental groups. […] Mitochondrial size was calculated by circling discernible mitochondria with ImageJ within the F.O.V. and averaged across the multiple images within a single mouse.

## O=c1c(O)c(-c2ccc(O)c(O)c2)oc2cc(O)cc(O)c12 [quercetin, 3,4,5,7-pentahydroxylflavone]
[1]
  myofibrillar fiber size distribution: rightward shift
[1]; H&E
  increase in TA mean CSA: 32.0%
[2]; soleus TEM per F.O.V., p=0.04
  greater number of mitochondria: 89.6%
[2]; soleus TEM, p>0.01 as printed
  greater mitochondrial size: 45.3%
